Assays:
human MATE1 = biological target: T1, human MATE1 (Homo sapiens, UniProt Q96FL8); assay: In vitro transporter inhibition; type: in vitro ADME
T1 sequence (Q96FL8 1-570): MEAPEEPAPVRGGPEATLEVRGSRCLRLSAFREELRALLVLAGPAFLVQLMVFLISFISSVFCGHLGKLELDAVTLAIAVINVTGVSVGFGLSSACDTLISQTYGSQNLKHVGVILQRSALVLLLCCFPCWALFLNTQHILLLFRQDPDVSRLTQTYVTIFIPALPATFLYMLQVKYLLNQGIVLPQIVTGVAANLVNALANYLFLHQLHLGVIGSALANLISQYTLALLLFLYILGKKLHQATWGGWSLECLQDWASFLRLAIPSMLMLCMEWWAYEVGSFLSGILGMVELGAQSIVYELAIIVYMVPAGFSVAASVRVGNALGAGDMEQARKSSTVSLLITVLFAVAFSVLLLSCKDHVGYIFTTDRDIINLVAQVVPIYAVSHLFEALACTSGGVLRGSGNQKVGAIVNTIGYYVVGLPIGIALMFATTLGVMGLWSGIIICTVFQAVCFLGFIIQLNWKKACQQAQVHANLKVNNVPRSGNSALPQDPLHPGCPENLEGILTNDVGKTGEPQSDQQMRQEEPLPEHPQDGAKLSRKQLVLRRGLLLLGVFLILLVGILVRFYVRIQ
Protocol: (§1) In vitro drug interaction studies were performed with human transporters. […] Potential interactions with inhibitors of the OAT1 transporter were considered clinically irrelevant.

human OAT3 = biological target: T2, human OAT3 (Homo sapiens, UniProt Q8TCC7); assay: In vitro transporter inhibition; type: in vitro ADME
T2 sequence (Q8TCC7 1-542): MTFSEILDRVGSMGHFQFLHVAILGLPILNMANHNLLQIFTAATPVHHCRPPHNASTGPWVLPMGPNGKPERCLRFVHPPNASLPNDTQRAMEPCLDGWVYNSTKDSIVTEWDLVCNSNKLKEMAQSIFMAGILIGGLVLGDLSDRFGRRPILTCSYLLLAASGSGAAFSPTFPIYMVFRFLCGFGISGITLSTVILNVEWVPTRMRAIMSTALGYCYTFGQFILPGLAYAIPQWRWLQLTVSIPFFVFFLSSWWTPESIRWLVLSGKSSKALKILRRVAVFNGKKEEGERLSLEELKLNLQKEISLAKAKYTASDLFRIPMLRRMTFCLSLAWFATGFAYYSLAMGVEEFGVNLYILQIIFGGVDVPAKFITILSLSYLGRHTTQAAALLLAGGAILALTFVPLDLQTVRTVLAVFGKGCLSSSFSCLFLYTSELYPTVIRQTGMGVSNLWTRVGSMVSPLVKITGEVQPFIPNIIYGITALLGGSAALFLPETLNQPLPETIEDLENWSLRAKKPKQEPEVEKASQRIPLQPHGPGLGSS
Protocol: as §1

clinical = conditions: human, in vivo; for CL renal / clearance / half-life / Vd: both sexes; for clearance: Cl
Protocol: The levels of CGA in plasma and urine were analysed using a fully validated method, which included LC-MS/MS analysis. The PK data were analysed based on a non-compartmental model. A model-based approach was implemented for the characterization of the PK properties of the IV formulation in order to estimate the level of PK exposure after different doses administered with different duration of infusion. The model outcomes provided rationales for supporting decision-making through the dose escalation process. The PK parameters were determined using SAS (version 9.3), and modelling of the PK data was performed using NONMEM (version 7.3, ICON Solutions). PART A: Mono-Centre, Randomized, Successive Groups, Double-Blind, Placebo-Controlled Study in Healthy Male and Female Subjects
Part C was a randomized, double-blind, placebo-controlled study. It was conducted in five successive cohorts of 8 healthy male or female subjects each, for a total of 40 subjects. For each of the five cohorts, 6 subjects were administered CGA and 2 subjects received placebo. The study medication was administered IV, first as a loading dose and then as a maintenance dose. The dosage regimen was determined based both on the results of Part A and PK modelling.
For the first three cohorts, three ascending doses of the study medication were administered IV as loading doses of 2.0, 3.0, and 3.6 mg/kg for 20 minutes, respectively, followed by maintenance doses of 2.5, 3.75 and 4.5 mg/kg/h given by IV infusion over a period of […]. For the fourth cohort, a dose of the IV formulation of CGA determined as being well tolerated was administered as a loading dose by IV infusion over 20 minutes, followed by a maintenance dose administered by IV infusion over a period of up to 12 hours. The 5th cohort received the study medication at the same dose and under the same conditions as the 4th cohort, except for the period during which the maintenance dose was administered, which lasted up to 24 hours.
Blood sample for PK measurements were collected at 18 timepoints for the first three cohorts, and 20 timepoints for the 4th and 5th cohorts. These included a sample preceding the administration of the study medication, and the period from 20 minutes to 48 hours following the initiation of the IV infusion. Urine was also collected for PK measurements at the following intervals relative to the time of initiation of the IV infusion: 0-6, 6-12, 12-24, 24-36, and 36-48 hours. […]

[1] = Nonclinical safety study in rats: exposure; conditions: rat, in vivo

## NC(=O)N[C@@H](CCC(=O)O)C(=O)O [carglumic acid, N-carbamoyl-L-glutamic acid]
Human MATE1
  Inhibition of human MATE1 uptake transporter: not an inhibitor
Human OAT3
  Inhibition of human OAT3 uptake transporter: not an inhibitor
clinical; iv, Average renal clearance
  CL renal: 4.83 mL/min/kg
clinical; iv, Mean
  clearance: 5.33 mL/min/kg
  half-life: 28.4 h
  Vd: 13 L/kg
clinical; iv, Median
  clearance: 5.27 mL/min/kg
  half-life: 28.5 h
  Vd: 12.8 L/kg
clinical; iv, Renal Clearance, Mean
  CL renal: 4.83 mL/min/kg
clinical; iv, Renal Clearance, Median
  CL renal: 4.98 mL/min/kg
clinical; both, iv
  Ae (% of the dose excreted), Max: 111.412%
  Ae (% of the dose excreted), Mean: 84.478%
  Ae (% of the dose excreted), Median: 86.924%
  Ae (% of the dose excreted), Min: 38.756%
  Cl, Max: 7.3 mL/min/kg
  Cl, Min: 3.2 mL/min/kg
  Half-life, Max: 39.987 h
  Half-life, Min: 13.598 h
  Renal Clearance, Max: 8.5 mL/min/kg
  Renal Clearance, Min: 1.93 mL/min/kg
  Vd, Max: 19.689 L/kg
  Vd, Min: 3.897 L/kg
clinical
  Dose dependence of AUCinf, AUClast and Cmax: increased linearly
[1]; read-out: AUC, exposure previously observed
  AUC: 258 µg·h/mL
[1]; read-out: Cmax, exposure previously observed
  Cmax: 52 µg/mL

Reference: patent publication US20220040129A1, “TREATMENT OF HYPERAMMONEMIA IN PATIENTS WITH RENAL INSUFFICIENCY” (RECORDATI S.p.A., priority 2019, published 2022)
